In patent US20180311199A1, “COMBINATION TREATMENT FOR INFLAMMATORY DISEASES” (priority 2016, published 2018):

What was measured:
[1] = test system: IL-6, IL-19, G-CSF, S100AB, and NAP-2; assay: ELISA of cytokine proteins in culture supernatant of M5-treated primary human keratinocytes (psoriasis cell culture model); format: cell-based; details: of five gene products (IL-6, IL-19, G-CSF, S100AB, NAP-2), primary human keratinocytes + M5, 24 hours, diacerein 10 μM, infliximab 5 μg/ml
Method: Experiments were carried out to investigate the effect of combined anti-TNF-α (infliximab) and diacerein, an inhibitor for a pro-inflammatory cytokine interleukin-1, utilizing an in vivo-equivalent psoriasis cell culture system. This in vivo-equivalent model is generated by using a group of 5 different natural chemicals (M5: IL-17A, IL-22, Oncostatin-M, IL-1α, and TNF-α) on human epidermal cells keratinocytes, recapitulating the in vivo immune dysregulation as identified in vivo in the skin lesions of patients affected by psoriasis (Guilloteau et al., Skin Inflammation Induced by the Synergistic Action of IL-17A, IL-22, Oncostatin M, IL-1α, and TNF-α Recapitulates Some Features of Psoriasis. Journal of Immunology 2010; 184:5263-70). […]
After 24 hours of incubation, the culture media (supernatant) of the above 5 groups were collected and stored at −20° C. for ELISA experiments as the following: 50-100 μl of cell culture supernatant were assayed with commercially available ELISA kits for human cytokines according to the manufacturers' instructions (IL-6, IL-19, G-CSF, S100AB, and NAP-2). The data we collected determined that infliximab alone (group 3), diacerein alone (group 4), and combined infliximab and diacerein (group 5) partially or completely reverse the dysregulation effect of the 5 natural chemicals (M5) in five, three, and five genes, respectively. […]

[2] = test system: pro-inflammatory genes regulated by M5; assay: Inflammatory Response and Autoimmune PCR Array on RNA of M5-treated primary human keratinocytes; format: cell-based; details: diacerein 10 μM, infliximab 5 μg/ml; for number of genes in which the greatest effect was seen: of 48 genes partially or fully reversed by all three groups, keratinocytes + M5, 24 hours; for number of genes on which the effect of the five cytokines was partially or fully reversed: of 81 pro-inflammatory genes significantly (p<0.05) regulated at least 2-fold by M5, keratinocytes, 24 hours
Method: Experiments were carried out to investigate the effect of combined anti-TNF-α (infliximab) and diacerein, an inhibitor for a pro-inflammatory cytokine interleukin-1, utilizing an in vivo-equivalent psoriasis cell culture system. This in vivo-equivalent model is generated by using a group of 5 different natural chemicals (M5: IL-17A, IL-22, Oncostatin-M, IL-1α, and TNF-α) on human epidermal cells keratinocytes, recapitulating the in vivo immune dysregulation as identified in vivo in the skin lesions of patients affected by psoriasis (Guilloteau et al., Skin Inflammation Induced by the Synergistic Action of IL-17A, IL-22, Oncostatin M, IL-1α, and TNF-α Recapitulates Some Features of Psoriasis. Journal of Immunology 2010; 184:5263-70). Thus, this in vivo-equivalent model provides an excellent tool for the investigation of the combined effect of anti-TNF-α and diacerein on psoriasis.
The experiments were carried out in the following manner: Primary human keratinocytes (purchased from Invitrogen, Carlsbad, Calif.) Epilife culture medium supplemented with human keratinocyte growth supplement (Invitrogen) in standard humidified chamber (37° C., 5% CO2). When the cells reached 80% confluency, cells were divided into 5 groups for treatment: • 1). Cell culture medium alone, serving as a negative control • 2). Cell culture medium plus 5 natural chemicals (M5) • 3). Cell culture medium plus 5 natural chemicals (M5) and anti-TNF-alpha (infliximab) • 4). Cell culture medium plus 5 natural chemicals (M5) and diacerein • 5). Cell culture medium plus 5 natural chemicals (M5), anti-TNF-alpha (infliximab) and diacerein.
The above 5 groups were incubated at 37° C. for 24 hours.
The concentrations and commercial sources of the experiment components are: • IL-17 alpha (10 ng/ml, Life Technologies, Frederick, Md.) • IL-22 (10 ng/ml. Life Technologies, Frederick, Md.) • Oncostatin-M (10 ng/ml, Life Technologies, Frederick, Md.) • IL-1 alpha (10 ng/ml, Life Technologies, Frederick, Md.) • TNF-alpha ([…], Life Technologies, Frederick, Md.) • Diacerein (10 μM, Sigma Aldrich, Saint Louis, Md.) • Infliximab (Remicade®, an anti-TNF-alpha, 5 μg/ml, Jansen Biotech, Horsham, Pa.)
After 24 hours of incubation, the cultured cells were washed three times with sterile PBS (phosphate-buffered saline) and the RNAs were harvested with Trizol (Invitrogen) and the purity (A260/A280 ratio>1.8) was confirmed. Reverse transcription was performed with 1 micro gram RNA using first strand kit from Invitrogen according to manufacturer's instruction. 10 μl of mastermix (Qiagen, Valencia, Calif.) with the reversely transcribed cDNA were amplified using a real-time PCR machine (ViiA7 PCR, Applied Biosystems, Waltham, Pa.). Statistical analysis was performed with web-based Software. […]

| Compound | number of genes in which the dysregulation effect of the 5 natural chemicals (M5) is partially or completely reversed [1] | number of genes in which the greatest effect was seen [2] | number of genes on which the effect of the five cytokines was partially or fully reversed [2] |
| --- | --- | --- | --- |
| infliximab | five | 10 genes | 67 genes |
| CC(=O)Oc1cccc2c1C(=O)c1c(OC(C)=O)cc(C(=O)O)cc1C2=O [diacerein] | three | 17 genes | 61 genes |
